Test results from patent US20220112225A1, “ANANDAMIDE COMPOUNDS” (priority 2019, published 2022).

Assays:
[1] = PO JVC rat terminal PK study at 20 mg/kg (tissue distribution); assay type: in vivo; conditions: rat brain after Compound 3 at 20 mg/kg PO, before the more sensitive method
Experimental: Compound 3 was orally dosed at 20 mg/kg to a group of nine, jugular vein cannulated, individually housed male Sprague Dawley rats that were fasted overnight and fed 4 h post-dose to assess its tissue distribution profile. Dosing was performed with 5 mL/kg dosing volumes with 5% DMSO, 95% water used as a dosing vehicle. Terminal blood samples (>230 μL) were taken from groups of 3 animals at each of 3 time-points post dose (1 h, 2 h, and 4 h) by cardiac puncture under CO2 into heparinised Eppendorf tubes (containing 5 μL heparin) on ice containing an equal quantity of water. Two 100 μL aliquots were then placed in duplicate 96 well plates on dry ice. Immediately after blood sampling, brain and eye pair samples were excised, weighed, rinsed, blotted, and snap frozen in liquid N2. Samples were stored in the freezer at −20° C. until bioanalysis.
Tissue samples were weighed and a volume of water 3 times the mass added to samples before homogenization. In the case of eyeballs the lens could not be homogenized, but all other tissues homogenized. The resulting data (tissue distribution parameters) are shown below in Table 2.

[2] = Brain homogenate re-analysis for Compound 2 after PO Compound 3 at 20 mg/kg; assay type: in vivo; conditions: after dosing Compound 3
Experimental: Re-analysis of the brain tissues harvested above (see Example 4) was conducted according to the following procedures and the data are shown in Table 3. • 1. 100 μL of brain homogenate was transferred to a 2 mL square matrix deep well plate, • 2. 300 μL acetonitrile (ACN) containing IS was dispensed on to the samples and mixed on a shaker. • 3. The samples were centrifuged for 15 min at 3500 rpm. • 4. 300 μL supernatant was transferred in to a fresh 2 mL square matrix deep well plate. • 5. Samples were concentrated using nitrogen then reconstituted in 80 μL of 50:50 ACN:MilliQ water and shaken on a plate shaker. • 6. Samples were then analyzed by LC-MS-MS.

hMfsd2a [3] = target: T1, hMfsd2a (Homo sapiens, UniProt Q8NA29); assay: In vitro Mfsd2a transport, thin layer chromatography (TLC) analysis; assay type: cell-based; conditions: transfected HEK293 cells, 50 μM test compound, 1 hour, iodine and cupric acetate stain
T1 construct: expressed in transfected cells; host or cells: HEK293
T1 sequence (Q8NA29 1-530 isoform Q8NA29-2): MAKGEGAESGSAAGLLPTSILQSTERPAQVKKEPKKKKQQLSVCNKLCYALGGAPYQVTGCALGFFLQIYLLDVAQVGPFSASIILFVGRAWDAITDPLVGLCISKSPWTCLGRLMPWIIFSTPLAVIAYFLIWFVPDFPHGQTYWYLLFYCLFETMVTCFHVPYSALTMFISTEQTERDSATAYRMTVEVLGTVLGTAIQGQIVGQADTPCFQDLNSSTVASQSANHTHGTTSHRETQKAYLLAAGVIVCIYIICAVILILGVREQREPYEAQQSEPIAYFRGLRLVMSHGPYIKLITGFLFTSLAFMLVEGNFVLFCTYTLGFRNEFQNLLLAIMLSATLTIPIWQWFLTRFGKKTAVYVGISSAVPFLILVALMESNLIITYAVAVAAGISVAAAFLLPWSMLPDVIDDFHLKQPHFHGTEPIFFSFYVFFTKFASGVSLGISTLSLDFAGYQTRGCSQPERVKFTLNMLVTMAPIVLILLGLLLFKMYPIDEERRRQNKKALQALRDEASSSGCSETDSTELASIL
Experimental: (§1) The assay was conducted in a low throughput 6-well format with HEK293 cells prepared and then transfected in duplicate wells with plasmids containing either the wildtype (WT) version of hMfsd2a, the D97A mutant version, or an empty vector as control. Uptake into the ceils was assessed by both thin-layer chromatography (TLC) and ultrahigh performance liquid chromatography hyphenated mass spectrometry.
(§2) HEK293 cells were seeded at 6.25×10^5 per 6-well in 2 mL of DMEM with 10% FBS and 1% penicillin-streptomycin (P/S) media (Sigma) and incubated overnight at 37° C. in 5% CO2. Cells were checked for confluency the next morning. On a per well basis the following lipid mix was generated, 6 μL of Lipofectamine 2000 was added dropwise to 200 μL of OptiMEM, this was left to stand for 5 minutes at room temperature (RT). 1 μg of hMfsd2a WT, D97A or empty plasmid was prepared in 200 μL of OptiMEM as appropriate for each well; the Lipofectamine 2000 in OptiMEM solution was then added dropwise to a total volume of 400 μL (this can be scaled to support the number of wells/plates to be assayed). This transfection preparation was then incubated at RT for 20 minutes. DMEM with 10% FBS and no P/S media was warmed to 37° C., the HEK293 plate media was changed and the cells washed carefully with 1 mL of the warmed DMEM with 10% FBS no P/S media, 1.6 mL of the warmed DMEM with 10% FBS no P/S media was then added to each well. 400 μL of the transfection preparation was then added dropwise to each well as appropriate and the plate was gently swirled in a circular motion. The plate was then incubated overnight at 37° C. in 5% CO2.
(§3) Compound Incubation and Preparation of Analysis Samples Compound stock solutions were prepared in a 12% BSA in PBS solution such that a 40 μL spike into 2 ml, of plain DMEM would yield a concentration of 50 μM of test compound (the compound treated media). Remaining compound stock solution in 12% BSA in PBS was frozen at −20° C. to allow for media stability testing. The HEK293 6-well plate was removed from the incubator and the wells gently rinsed with 1 mL of plain DMEM that had been prewarmed to 37° C. 2 mL of the compound treated media was then added to each well. A 100 μL sample of the compound treated media was sampled to represent a T=0 h sample; 5 μL of this sample (the remainder was reserved and frozen in case of re-analysis being required) was diluted with 45 μL of DMEM and crashed with 50 μL MeCN in a 96-well plate which was sealed and kept on ice. The HEK293 6-well plate was then incubated at 37° C. in 5% CO2 for 1 hour, the plate was then removed from the incubator and a 100 μL sample of media taken from each well to represent a T=1 h sample; 5 μL of this sample (the remainder was reserved and frozen in case of re-analysis being required) was diluted with 45 μL of DMEM and crashed with 50 μL MeCN into the 96-well plate which was re-sealed and stored at −20° C. The remaining media was then removed from the HEK293 6-well plate, the wells were gently rinsed twice with 1 mL of 0.5% BSA in DMEM, the media was then removed and the 6-well plate allowed to dry completely at RT. 1 ml of 3:2 Hexane:Isopropanol (HIP) was added to each well in a fume cupboard and the plate allowed to stand for 30 minutes at RT without shaking. The HIP solution was then transferred to 2 mL Eppendorf tubes, and the process was repeated with a second 1 mL aliquot of HIP and the two aliquots combined. The HIP samples were then dried down under a nitrogen stream.
Silica gel plates were prepared in a fume cupboard by initially drawing a line 1.5 cm from the bottom edge of the plate and then drawing sample lanes with a width of 1 cm and a separation of 0.5 cm between lanes. TLC buffer for phospholipids was prepared as a 31:62:7 solvent mix of Methanol:Chloroform:Ammonium Hydroxide. Plates were pre-run in a humid chamber containing 200 mL of the TLC buffer until the solvent front was 1.5 cm from the plate edge, the plate was then allowed to dry. […]

hMfsd2a [4] = target: T1, hMfsd2a; assay: In vitro Mfsd2a transport, UPLC-MS-MS analysis; assay type: cell-based; conditions: transfected HEK293 cells, 50 μM test compound, 1 hour
Experimental: as §1, §2, §3
HIP samples prepared as described above were reconstituted in 100 μL of MeCN, vortex mixed and inverted multiple times to ensure all surfaces of the Eppendorf tube were rinsed with the MeCN and finally pulse centrifuged. […]

[5] = In vitro brain homogenate stability, rat; assay type: in vitro ADME; conditions: for half-life at 1 μM: 37° C., test compound at 1 μM, read-out: Rat t1/2; for Clearance in brain homogenate stability study (in words): one hour incubation, increasing formation of Compound 2
Experimental: (§4) Fresh rodents brains were snap frozen immediately after collection and the assay performed on the same day. Brains were pre-incubated at 37° C. before being spiked with test compound at 1 μM. Samples were collected across 6 time points (0, 10, 20, 30, 45 and 60 minutes) and crashed in cold acetonitrile containing an internal standard (Leucine Enkephalin) and kept on ice until all samples had been collected. The samples were then shaken and centrifuged. 100 μL of supernatant was transferred to a plate containing 50 μL of MilliQ water and mixed. These plates were analyzed by LC-MS/MS over the 6 time points, where the percentage of test compound remaining was calculated using the peak area of the initial timepoint (T=0 minutes) as 100%. The natural log of the percentage remaining was then calculated. The natural log of the percentage remaining versus time (minutes) was plotted on a graph and the gradient of this graph was used to calculate the elimination rate constant (K), The half-life (t1/2) of test compound was calculated using the natural log of 2 divided by the elimination rate constant. The percentage of Compound 2 formed is reported below in Tables 4-6. FIGS. 9A-9F show results of the brain homogenate stability conducted with representative compounds of the Examples.

[6] = In vitro brain homogenate stability, mouse; assay type: in vitro ADME; conditions: for half-life at 1 μM: 37° C., test compound at 1 μM, read-out: Mouse t1/2; for Clearance in brain homogenate stability study (in words): one hour incubation, increasing formation of Compound 2
Experimental: as §4

SMILES	Detection of Compound 2 in brain tissues, first analysis [1]	Detection of Compound 2 in the brain, in-vivo rat CNS penetration data using Compound 3 [2]	Transport via Mfsd2a: TLC band intensity in WT cells compared with D97A mutant Mfsd2a and/or empty vector cells (hMfsd2a [3])	Transport via Mfsd2a: concentration in HIP samples from WT cells compared with D97A mutant Mfsd2a and/or empty vector cells (hMfsd2a [4])	half-life at 1 μM [5] [h]	Clearance in brain homogenate stability study (in words) [5]	half-life at 1 μM [6] [h]	Clearance in brain homogenate stability study (in words) [6]
CCCCC/C=C\C/C=C\C/C=C\C/C=C\CCCC(=O)NCCO [Compound 2, (5Z,8Z,11Z,14Z)—N-(2-hydroxyethyl)icosa-5,8,11,14-tetraenamide, reference compound]	not detected above the lower limit of quantification	detected in the brain	–	–	–	–	–	–
CCCCC/C=C\C/C=C\C/C=C\C/C=C\CCCC(=O)NCCOP(=O)(O)OCCN [Compound 4, 2-ammonioethyl (2-((5Z,8Z,11Z,14Z)-icosa-5,8,11,14-tetraenamido)ethyl) phosphate]	–	–	transported via Mfsd2a	transported via Mfsd2a	1.27	demonstrated a level of clearance	2	demonstrated a level of clearance
CCCCC/C=C\C/C=C\C/C=C\C/C=C\CCCC(=O)NCCOP(=O)(O)OCC(N)C(=O)O (stereo not shown) [Compound 5, 2-ammonio-2-carboxyethyl (2-((5Z,8Z,11Z,14Z)-icosa-5,8,11,14-tetraenamido)ethyl) phosphate]	–	–	transported via Mfsd2a	cannot be confirmed if the compound is transported via Mfsd2a	2.1	demonstrated a level of clearance	4.3	demonstrated a level of clearance
CCCCC/C=C\C/C=C\C/C=C\C/C=C\CCCC(=O)NCCOC(=O)OCCOP(=O)([O-])OCC[N+](C)(C)C [Compound 6, 2-(((2-((5Z,8Z,11Z,14Z)-icosa-5,8,11,14-tetraenamido)ethoxy)carbonyl)oxy)ethyl (2-(trimethylammonio)ethyl) phosphate]	–	–	transported via Mfsd2a	transported via Mfsd2a	–	–	–	–
CCCCC/C=C\C/C=C\C/C=C\C/C=C\CCCC(=O)NCCOC(=O)OCCCOP(=O)([O-])OCC[N+](C)(C)C [Compound 7, 3-(((2-((5Z,8Z,11Z,14Z)-icosa-5,8,11,14-tetraenamido)ethoxy)carbonyl)oxy)propyl (2-(trimethylammonio)ethyl) phosphate]	–	–	transported via Mfsd2a	transported via Mfsd2a	–	–	–	–
CCCCC/C=C\C/C=C\C/C=C\C/C=C\CCCC(=O)NCCOC(=O)NCCOP(=O)([O-])OCC[N+](C)(C)C [Compound 8, 2-(((2-((5Z,8Z,11Z,14Z)-icosa-5,8,11,14-tetraenamido)ethoxy)carbonyl)amino)ethyl (2-(trimethylammonio)ethyl) phosphate]	–	–	transported via Mfsd2a	transported via Mfsd2a	–	–	–	–
CCCCC/C=C\C/C=C\C/C=C\C/C=C\CCCC(=O)NOC(C)(O)COP(=O)([O-])OCC[N+](C)(C)C (stereo not shown) [Compound 20, 2-hydroxy-2-(((5Z,8Z,11Z,14Z)-icosa-5,8,11,14-tetraenamido)oxy)propyl (2-(trimethylammonio)ethyl) phosphate]	–	–	cannot be confirmed if the compound is transported via Mfsd2a	transported via Mfsd2a	–	–	–	–
